Results published in the NIST ThermoML archive (doi:10.1021/acs.jced.5b00367).
“And” between values parts separate entries of the source, which are not always exact repeats. Identical values can stand only once.

Experiment: wn = mass fraction of the nth substance listed
Settings: 101 kPa, Liquid, Alternating current cell with electrodes, w1 = 0.01

CCCCCCCCCCCC[N+](CC)(CC)CCCCCCCCCCCC.[Br-] [didodecyldiethylammonium bromide] + O
Settings | electrical conductivity
279.25 K | 0.00329 S/m
279.35 K | 0.00328 S/m
279.45 K | 0.00328 S/m
279.55 K | 0.00328 S/m
279.65 K | 0.00329 S/m
279.75 K | 0.00331 S/m and 0.00332 S/m
279.85 K | 0.00335 S/m
279.95 K | 0.00338 S/m and 0.00343 S/m
280.15 K | 0.00345 S/m
280.25 K | 0.00348 S/m
280.35 K | 0.00355 S/m
280.45 K | 0.00357 S/m
280.55 K | 0.00359 S/m
280.65 K | 0.0036 S/m
280.75 K | 0.00364 S/m
280.85 K | 0.0037 S/m and 0.00371 S/m
280.95 K | 0.00378 S/m
281.05 K | 0.00381 S/m
281.15 K | 0.00381 S/m
281.25 K | 0.00371 S/m
281.35 K | 0.00377 S/m
281.45 K | 0.00374 S/m
281.55 K | 0.00378 S/m
281.65 K | 0.00378 S/m
281.85 K | 0.00378 S/m
281.95 K | 0.00374 S/m
282.05 K | 0.00366 S/m
282.25 K | 0.00373 S/m
282.45 K | 0.00366 S/m
282.65 K | 0.00365 S/m
282.75 K | 0.00364 S/m
282.85 K | 0.00356 S/m
283.05 K | 0.00356 S/m
283.15 K | 0.0036 S/m
283.35 K | 0.0034 S/m
283.45 K | 0.0036 S/m
283.55 K | 0.00354 S/m
283.75 K | 0.0035 S/m
283.85 K | 0.00351 S/m
283.95 K | 0.00346 S/m
284.05 K | 0.0035 S/m
284.25 K | 0.00354 S/m
284.35 K | 0.00354 S/m
284.55 K | 0.0034 S/m
284.65 K | 0.00355 S/m
284.75 K | 0.0035 S/m
284.85 K | 0.00345 S/m
284.95 K | 0.00352 S/m
285.05 K | 0.00342 S/m
285.15 K | 0.00344 S/m
285.25 K | 0.0035 S/m
285.35 K | 0.00344 S/m
285.45 K | 0.00344 S/m
285.55 K | 0.00342 S/m
285.65 K | 0.00343 S/m
285.75 K | 0.0034 S/m
285.85 K | 0.00342 S/m
285.95 K | 0.00343 S/m
286.05 K | 0.00348 S/m
286.15 K | 0.0034 S/m
286.25 K | 0.00342 S/m
286.35 K | 0.00341 S/m
286.45 K | 0.00343 S/m
286.55 K | 0.00339 S/m
286.65 K | 0.0034 S/m
286.75 K | 0.00347 S/m
286.95 K | 0.00347 S/m
287.05 K | 0.00347 S/m
287.15 K | 0.00344 S/m
287.25 K | 0.00341 S/m
287.35 K | 0.00345 S/m
287.45 K | 0.00347 S/m
287.55 K | 0.00345 S/m
287.65 K | 0.00341 S/m
287.75 K | 0.00342 S/m
287.85 K | 0.00343 S/m
287.95 K | 0.00348 S/m
288.05 K | 0.00344 S/m
288.15 K | 0.00345 S/m
288.25 K | 0.00342 S/m
288.45 K | 0.0035 S/m
288.55 K | 0.00357 S/m
288.65 K | 0.00345 S/m
288.75 K | 0.0035 S/m
288.85 K | 0.00345 S/m
288.95 K | 0.00346 S/m
289.05 K | 0.00344 S/m
289.15 K | 0.00349 S/m
289.25 K | 0.00346 S/m
289.35 K | 0.00352 S/m
289.45 K | 0.00346 S/m
289.55 K | 0.00347 S/m
289.65 K | 0.00352 S/m
289.75 K | 0.00352 S/m
289.85 K | 0.00352 S/m
289.95 K | 0.00351 S/m
290.05 K | 0.00357 S/m
290.15 K | 0.00348 S/m
290.25 K | 0.0035 S/m
290.35 K | 0.00347 S/m
290.55 K | 0.00355 S/m
290.65 K | 0.00364 S/m
290.75 K | 0.00356 S/m
290.85 K | 0.00359 S/m
290.95 K | 0.0036 S/m
291.05 K | 0.00358 S/m
291.15 K | 0.00361 S/m
291.25 K | 0.00357 S/m
291.35 K | 0.00362 S/m
291.45 K | 0.0036 S/m
291.55 K | 0.00366 S/m
291.65 K | 0.00359 S/m
291.75 K | 0.0036 S/m
291.85 K | 0.00363 S/m
291.95 K | 0.00362 S/m
292.05 K | 0.00364 S/m
292.15 K | 0.00366 S/m
292.25 K | 0.00366 S/m
292.35 K | 0.00367 S/m
292.45 K | 0.00362 S/m
292.55 K | 0.00374 S/m
292.65 K | 0.00369 S/m
292.75 K | 0.00367 S/m
292.85 K | 0.00372 S/m
292.95 K | 0.00369 S/m
293.05 K | 0.00378 S/m
293.15 K | 0.00377 S/m
293.25 K | 0.00376 S/m
293.35 K | 0.00376 S/m
293.45 K | 0.0037 S/m
293.55 K | 0.00375 S/m
293.65 K | 0.00376 S/m
293.75 K | 0.00372 S/m
293.85 K | 0.00383 S/m
293.95 K | 0.00378 S/m
294.05 K | 0.0038 S/m
294.15 K | 0.00381 S/m
294.25 K | 0.0038 S/m
294.35 K | 0.00381 S/m
294.45 K | 0.00383 S/m
294.55 K | 0.00382 S/m
294.65 K | 0.00384 S/m
294.75 K | 0.00385 S/m
294.85 K | 0.00386 S/m
294.95 K | 0.00387 S/m
295.05 K | 0.00389 S/m
295.15 K | 0.00389 S/m
295.25 K | 0.00386 S/m
295.35 K | 0.00396 S/m
295.45 K | 0.00395 S/m
295.55 K | 0.00387 S/m
295.65 K | 0.00396 S/m
296.45 K | 0.00389 S/m
296.55 K | 0.00397 S/m
296.75 K | 0.00394 S/m
297.45 K | 0.00396 S/m
297.85 K | 0.00401 S/m
298.15 K | 0.00402 S/m
298.55 K | 0.00399 S/m
298.75 K | 0.00405 S/m
298.95 K | 0.00402 S/m
299.15 K | 0.00407 S/m
299.55 K | 0.00409 S/m
299.75 K | 0.00406 S/m
300.05 K | 0.00407 S/m
300.45 K | 0.00419 S/m
300.75 K | 0.00428 S/m
300.95 K | 0.00431 S/m
301.55 K | 0.00453 S/m
301.85 K | 0.00472 S/m
302.15 K | 0.0048 S/m
302.35 K | 0.005 S/m
302.75 K | 0.00518 S/m
303.05 K | 0.00543 S/m
303.45 K | 0.00568 S/m
303.75 K | 0.00609 S/m
304.55 K | 0.00686 S/m
304.85 K | 0.00713 S/m
305.15 K | 0.00765 S/m
305.55 K | 0.00812 S/m
305.85 K | 0.00833 S/m
306.05 K | 0.00891 S/m
306.35 K | 0.00946 S/m
307.35 K | 0.0136 S/m
307.55 K | 0.0157 S/m
307.95 K | 0.016 S/m
308.25 K | 0.0159 S/m
308.35 K | 0.016 S/m
308.75 K | 0.0162 S/m
308.95 K | 0.0165 S/m
309.25 K | 0.0167 S/m
309.75 K | 0.0169 S/m
310.05 K | 0.0171 S/m
310.15 K | 0.0172 S/m
310.45 K | 0.0175 S/m
310.65 K | 0.0177 S/m
310.85 K | 0.0179 S/m
311.05 K | 0.018 S/m
311.25 K | 0.0181 S/m
311.45 K | 0.0183 S/m
311.65 K | 0.0184 S/m
311.75 K | 0.0185 S/m
311.85 K | 0.0187 S/m
311.95 K | 0.0188 S/m
312.15 K | 0.0189 S/m
312.35 K | 0.0192 S/m
312.55 K | 0.0194 S/m
312.65 K | 0.0194 S/m
312.85 K | 0.0196 S/m
312.95 K | 0.0196 S/m
313.35 K | 0.0201 S/m
313.65 K | 0.0204 S/m
313.85 K | 0.0205 S/m
313.95 K | 0.0207 S/m
314.05 K | 0.0208 S/m
314.15 K | 0.0209 S/m
314.35 K | 0.021 S/m
314.45 K | 0.0212 S/m
314.65 K | 0.0213 S/m
314.75 K | 0.0214 S/m
314.85 K | 0.0216 S/m
314.95 K | 0.0217 S/m
315.05 K | 0.0218 S/m
315.15 K | 0.0219 S/m
315.25 K | 0.022 S/m
315.35 K | 0.0222 S/m
